The subject of data set [1] is HSV-1(F) or HSV-2(G). Description: In vitro HSV inactivation, plaque assay on Vero cells. The class given is cell-based, herpes simplex virus. The following applies: room temperature, in the dark, up to 60 minutes. On the procedure: Either HSV-1(F) or HSV-2(G) (10^7 pfu) was mixed with 1 ml of porphyrin at the concentration indicated in Dulbecco's modified Eagle's medium (DME) with 1% newborn calf serum. All assays were performed in duplicate. All tubes were wrapped in foil to keep out light, and ambient room light was reduced as much as was practicable. Virus and porphyrin were incubated together at room temperature for times up to 60 minutes (Table 2). Following incubation, 10 fold serial dilutions were performed in DME with 1% newborn serum, using tubes wrapped in foil. Virus was diluted 20,000 fold and plated on Vero cells. Following a 2 hour incubation with the cells, the inoculum was removed and cells were overlaid with DME with 1% newborn calf serum and 0.2% human gamma globulin. Cells were fixed and stained, and plaques counted, 2 days after infection.

For data set [2], the system named is MAGI cells. Briefly: Trypan blue exclusion cytotoxicity test. The note with it: four concentrations of porphyrin. On the procedure:
A standard trypan blue exclusion test (Strober, Trypan blue exclusion test of cell viability, p. A.3.3-A.3.4, in J. E. Coligan and A. M. Kruisbeek (ed.), Current protocols in immunology, Wiley-Greene, New York, N.Y., 1994) was used. Compounds at a concentration of 50 μg/ml in growth medium were added to a 96-well plate with MAGI cells. After 72 hr cells were detached by standard trypsin solution (0.25% trypsin-0.05% EDTA) and diluted 1:10 in growth medium. To test cell viability, 1 part of 0.4% trypan blue and 9 parts of diluted cells were mixed, incubated the mixture about 2 min at room temperature, and applied a drop of the trypan blue/cell mixture to a hemacytometer. Using a binocular microscope, the stained (nonviable) and unstained (viable) cells were then counted. The fraction of viable cells was calculated as the number of unstained cells in the wells treated with compound as a percentage of the number in control wells.
The selective index value was defined as the CC50/EC50 ratio.
A trypan blue exclusion test to determine possible toxicity of the test compounds. Compounds at a concentration of 50 μg/ml in growth medium were added to MAGI cells. […] After 72 hr, a trypan blue assay was used to compare cell viability in cells treated with compounds to untreated cells.

In data set [3] the target is 89.6 Env (Human immunodeficiency virus type 1 group M subtype B, UniProt Q73372). It counts as cell-based, HIV-1.
The target in data set [4] is T1, HIV-1 Env protein (HXB2 Env) (Human immunodeficiency virus type 1 group M subtype B, UniProt P04578).
T1 construct: expressed in transfected cells; host or cells: 293T cells transfected with pIIIenv3-1 plus pCMVTAT; cocultured with 3T3 cells expressing CD4 and CXCR4
The class given is cell-based.

Data set [5] has as its system HIV-1 IIIB. Briefly: Screening for virucidal activity against HIV-1 IIIB, MAGI cell assay.
In data set [6] the target is IIIB Env of HIV 1 (Human immunodeficiency virus type 1 group M subtype B, UniProt P03375). It counts as cell-based.
The subject of data set [7] is SIVmac1A11. Description: Inactivation of SIVmac1A11 infectivity. It counts as cell-based, SIV.
The target of data set [8] is T2, binding of HIV-1 IIIB gp120 to CD4 (Human immunodeficiency virus type 1 group M subtype B, UniProt P04578).
T2 construct: The recombinant IIB gp120 protein (baculovirus-expressed) was obtained from Intracel; purchased Intracel (Cambridge, Mass.) for gp120; host or cells: baculovirus-expressed (gp120)
Description: gp120-CD4 binding assay (ELISA). The note with it: 1 hr at room temperature. On the procedure: To investigate the possible effect of porphyrin compounds on binding of HIV-1 IIIB gp120 to CD4, a gp120 CD4 binding assay was developed. The assay was developed as a modification of a capture gp120 ELISA kit (Intracel Corporation). Briefly, a 96-well plate was coated with soluble CD4 and 0.5 μg of HIV-1 IIIB gp120 per well was incubated in the presence or absence of test compounds for 1 hr at room temperature. After four washes with buffer to remove unbound proteins, the bound gp120 was detected by anti-gp120 peroxidase-conjugated antibodies and quantitated by the protocol provided by the manufacturer.

Data set [9] has as its system HIV-189.6. Description: Inactivation of HIV-1 89.6 infectivity. The class given is cell-based.

Chain of 89.6 Env (Q73372 32-719 limits assumed): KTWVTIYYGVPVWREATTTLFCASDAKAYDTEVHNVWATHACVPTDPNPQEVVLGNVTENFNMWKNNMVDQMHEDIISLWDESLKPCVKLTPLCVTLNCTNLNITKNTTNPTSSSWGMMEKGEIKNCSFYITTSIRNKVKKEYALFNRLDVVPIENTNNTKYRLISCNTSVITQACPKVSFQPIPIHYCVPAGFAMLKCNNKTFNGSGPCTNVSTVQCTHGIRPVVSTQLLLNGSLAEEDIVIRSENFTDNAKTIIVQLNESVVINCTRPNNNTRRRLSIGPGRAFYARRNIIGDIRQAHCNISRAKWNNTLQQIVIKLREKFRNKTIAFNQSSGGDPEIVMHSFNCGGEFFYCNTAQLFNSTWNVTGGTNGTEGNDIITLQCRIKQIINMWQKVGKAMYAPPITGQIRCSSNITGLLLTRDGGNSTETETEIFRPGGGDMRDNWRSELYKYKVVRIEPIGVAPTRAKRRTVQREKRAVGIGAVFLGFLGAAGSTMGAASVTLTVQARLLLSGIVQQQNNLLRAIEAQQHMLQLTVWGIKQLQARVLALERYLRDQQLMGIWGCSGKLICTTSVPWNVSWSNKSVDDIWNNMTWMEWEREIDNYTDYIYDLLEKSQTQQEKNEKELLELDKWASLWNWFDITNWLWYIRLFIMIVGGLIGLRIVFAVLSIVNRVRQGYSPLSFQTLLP
Chain of 89.6 Env (Q73372 509-719 partner limits assumed): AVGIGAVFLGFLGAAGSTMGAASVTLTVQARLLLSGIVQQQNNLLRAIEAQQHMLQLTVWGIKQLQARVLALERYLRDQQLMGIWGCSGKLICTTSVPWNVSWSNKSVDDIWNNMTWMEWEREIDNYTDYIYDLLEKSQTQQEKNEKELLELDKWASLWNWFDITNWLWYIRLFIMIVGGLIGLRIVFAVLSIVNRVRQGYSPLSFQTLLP

For `O=S(=O)(O)c1ccc(-c2c3nc(c(-c4ccc(S(=O)(=O)O)cc4)c4ccc([nH]4)c(-c4ccc(S(=O)(=O)O)cc4)c4nc(c(-c5ccccc5)c5ccc2[nH]5)C=C4)C=C3)cc1` [TPPS3, meso-tetraphenylporphyrin trisulfonate], the “inactivating HSVs” value in data set [1] is “active”. In [2], the “CC50 (concentration that reduced the viability of cells by 50%)” value was found to be 50 µg/mL. In data set [3], the “Presence of nuclei in syncytia, VV89.6 envt R5, 6 h” value is “−/4+”; the “Presence of nuclei in syncytia, VV89.6 envt R5, 23 h” value is on record as “−/4+ (key: 4+: more than 50% of nuclei are in syncytia; 3+: 30 to 50% of nuclei are in syncytia; 2+: 30 to 10% of nuclei are in syncytia; +: less than 10% of nuclei are in syncytia; −: no syncytia were observed)”; the “Presence of nuclei in syncytia, VV89.6 envt X4, 23 h” value is recorded as 1+/4+ (key: 4+: more than 50% of nuclei are in syncytia; 3+: 30 to 50% of nuclei are in syncytia; 2+: 30 to 10% of nuclei are in syncytia; +: less than 10% of nuclei are in syncytia; −: no syncytia were observed). Also, in data set [4], the “Presence of nuclei in syncytia, pIIIenv X4, 6 h” value was “−”. The “selective index CC50/EC50” value in data set [5] amounted to 10.

For the compound “sulfonated 5,10,15,20-tetra-naphthalen-1-yl-porphyrin [TNapPS]”, in data set [2], the “CC50 (concentration that reduced the viability of cells by 50%)” value was determined as 75 µg/mL. Moreover, the “inhibition of HIV-induced cell fusion in words” value in [6] is given as “Complete inhibition”. Moreover, in data set [7], the SIVmac1A11 inactivated was 88%. Also, in [4], the “Presence of nuclei in syncytia, pIIIenv X4, 6 h” value is “−” and the “inhibition of HIV-induced cell fusion in words” value was “complete inhibition”. Besides, in data set [8], the “inhibition of gp120/CD4 binding in words” value is recorded as “completely inhibit binding”. In addition, in data set [5] (0.5 μg/ml, HIV-1 IIIB, MAGI cells), the “activity at low concentration” value is recorded as “significant activity”. Further, the “kinetics of inactivation of HIV-1 IIIB” value in [5] (2 to 60 minutes) is on record as “inhibited viral growth almost completely”. For the same compound, the “activity against HIV in words” value in data set [5] (MAGI screening assay, HIV-1 IIIB) is recorded as “most active”. In addition, the infected cells remaining result in [5] (after 2 min incubation) was “approximately 1%”. For the same compound, the “HIV-1 89.6 inactivated” value in [9] is 76%.

Values taken from patent publication US20050090428A1, “Porphyrins with virucidal activity” (priority 2002, published 2005).
